As usually defined, the Papp is the rate of passage across a membrane or cell layer, normalised by area and donor concentration.

Where “and” joins values, the source holds several entries; their conditions need not be identical. Identical values can stand only once. Like-named read-outs stand apart in the source and are kept apart here. Marks after values point to notes of the source that are not given here.

Results on one compound are retold here after article PMC12426922, “Fingerprinting the Intestinal Transport of Low-Molecular-Mass Advanced Glycation End-Products (AGEs) Using a Caco‑2 Transwell Model” (Journal of Agricultural and Food Chemistry, 2025).

In one data set the test system is Caco-2 cell layer. The data set is described as follows: Transport of AGE mixture across Caco-2 cell layer (transwell, apical to basolateral). It counts as in vitro ADME, Human. Background: Caco-2 cells form a polarised layer with tight junctions and transporters.
Experiment in data set [1]: as above
It counts as in vitro ADME, Human. The note with it: human; for recovery at 2 h, 100 μmol/L: read-out: percentage of the amount added at the apical side at t = 0: recovery; for Papp at 120 min, 100 μmol/L: data from 120 min.

The test system of a further data set is PepT1. Described as above. It is filed as in vitro ADME, Human. The note with it: human, mixture, each AGE 100 μmol/L.
In data set [2] the test system is Caco-2 cell monolayer. The data set is described as follows: Accumulation of AGEs in the Caco-2 cell monolayer after transport experiment. It counts as in vitro ADME, Human. The settings on record: mixture, each AGE 100 μmol/L, 2 h. A digest of the protocol: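 After the transport experiment, Caco-2 monolayers on inserts were washed with HBSS and PBS. Lysates were centrifuged at 16 000g for 20 min at 4 °C, and the supernatant was quantified by LC-MS. Separation used a water/acetonitrile gradient, both with 0.1% formic acid, on a column held at 40 °C.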

Data set [3] concerns differentiated Caco-2 cells. Nature of the data set: WST-1 cytotoxicity assay, viability of differentiated Caco-2 cells after 2 h exposure. It counts as cell-based, Human. Summed up:
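Caco-2 cells (passages 10–15) were differentiated for 20 days, then exposed for 2 h at 37 °C to compounds or an equimolar mixture of 10 AGEs in HBSS with HEPES. WST-1 absorbance at 440 nm minus 620 nm was expressed as percent of untreated control.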
(Tetrazolium dyes change colour on reduction, which living cells bring about.)

For data set [4], the system named is Caco-2 cell monolayer. Set-up: method as in our previous study. The settings on record: CML in single testing; ref our previous study; cited from earlier work.
Setting [5] is: 4 °C, mixture, each AGE 100 μmol/L, 2 h.
Setting [6] is: Gly-Sar 10 mmol/L, mixture, each AGE 100 μmol/L, 2 h.
Setting [7] is: cytochalasin D pretreatment, mixture, each AGE 100 μmol/L, 2 h.
The mark [8] stands for this setting: standard treatment, mixture, each AGE 100 μmol/L, 2 h.
[9] abbreviates: Caco-2, 4 °C, mixture, each AGE 100 μmol/L.

For `N[C@@H](CCCCNCC(=O)O)C(=O)O` [CML, N-ε-(carboxymethyl)-lysine], in the data set on Caco-2 cell layer (4 °C versus 37 °C), the “effect of 4 °C on transport compared to 37 °C” value is “significantly reduced”. The “percentage of the amount added at the apical side at t = 0: apical side” value is given as 89.4 ± 5.3 ^a % in the data set on Caco-2 cell layer (setting [5]), 86.2 ± 3.6 ^a % with Caco-2 cell layer (setting [6]) and 91.8 ± 5.7 ^a % in the data set with Caco-2 cell layer (setting [7]). The “percentage of the amount added at the apical side at t = 0: basolateral side” value is on record as 0.3 ± 0.1 ^b % in the data set on Caco-2 cell layer (setting [5]), 0.5 ± 0.1 ^b % in the data set on Caco-2 cell layer (setting [6]) and 1.3 ± 0.6 ^a % in the data set on Caco-2 cell layer (setting [7]). The “Papp value in the mixture as percentage of the Papp value tested in isolation in previous study” value in the data set with Caco-2 cell layer (mixture versus compound in isolation (our previous study)) is 57%. In addition, the “percentage of the amount added at the apical side at t = 0: apical side (nontransported)” value in the data set on Caco-2 cell layer (setting [8]) was 89.0 ± 6.1 ^a %. In the data set with Caco-2 cell layer (setting [8]), the “percentage of the amount added at the apical side at t = 0: basolateral side (transported)” value is recorded as 0.5 ± 0.3 ^b %. For the same compound, the recovery at 2 h, 100 μmol/L in data set [1] (setting [9]) is 90 ± 5.3%; in data set [1] (Caco-2, cytochalasin D pretreatment, mixture, each AGE 100 μmol/L), 96.9 ± 5.8%; in data set [1] (Caco-2, standard treatment, mixture, each AGE 100 μmol/L), 93.1 ± 6.1%; in the data set on PepT1 (Caco-2, with Gly-Sar 10 mmol/L (apical compartment), Gly-Sar 10 mmol/L, 2 h, read-out: percentage of the amount added at the apical side at t = 0: recovery), 92.7 ± 3.1%. The Papp at 120 min, 100 μmol/L in data set [1] (setting [9]) was found to be 0.105 ×10⁻⁶ cm/s; in data set [1] (Caco-2, standard treatment (37 °C), equimolar mixture of 10 AGEs, each 100 μmol/L apical), 0.219 ×10⁻⁶ cm/s; in data set [1] (Caco-2, cytochalasin D 1 μg/mL, 30 min apical preincubation, mixture, each AGE 100 μmol/L), 0.561 ×10⁻⁶ cm/s; in the data set on PepT1 (Caco-2, with Gly-Sar 10 mmol/L (apical), 10 mmol/L Gly-Sar apical (PepT1 inhibition), data from 120 min), 0.207 ×10⁻⁶ cm/s. For the same compound, the “percentage of the amount added at the apical side at t = 0: accumulation” value with Caco-2 cell monolayer [2] (4 °C) is 0.3 ± 0.3 ^c %; in the data set on Caco-2 cell monolayer [2] (Gly-Sar 10 mmol/L), 6.0 ± 2.1 ^a %; in the data set with Caco-2 cell monolayer [2] (cytochalasin D pretreatment), 3.8 ± 0.9 ^b %. In the data set with Caco-2 cell monolayer [2] (standard treatment), the “percentage of the amount added at the apical side at t = 0: accumulation (intracellular)” value was 3.5% and 3.5 ± 0.6 ^b %. The “effect on cell viability” value in data set [3] is “did not affect cell viability up to the highest concentration tested”. The intracellular accumulation with Caco-2 cell monolayer [4] is 4.5%.
